Patent publication US11173207B2 (priority 2016, dated 2021)

Tested on: Splenocytes
Set-up: species or system CD-1 mice
Settings: mouse, in vivo

**Q.** QS21 was tested. Which cytokine profile did it give?
**A.** strong and balanced Th1 plus Th2 cytokine profile
